Like-named read-outs stand apart in the source and are kept apart here.
Legend:
DHBV = experiment: animal or person; format: in vivo, sheldrakes; details: Duck hepatitis B virus, po, 336 h; for inhibition in vivo at 10 mg/kg: 10 mg/kg intragastric once a day for 14 days; for inhibition in vivo at 0.5 mg/kg: 0.5 mg/kg intragastric once a day for 14 days
Procedure: The sheldrakes infected by vertical transmission and being positive in DHBV DNA detection were grouped randomly, 5/group. Water and different doses of the compound to be tested were intragastrically administrated, respectively, once a day, for 14 days. Venous blood samples were collected pre-dosing, at day 14 of dosing and at day 7 after drug withdrawal, the serum DHBV DNA content was measured using external standard TaqMan real-time fluorescence PCR method, and the inhibition ratio was calculated, as compared to the solvent group.

HBV = experiment: microbe, parasite or virus in culture; format: cell-based
Procedure: At day 10 post-dosing, 100 μl supernate was taken and the content of HBV DNA was measured by the method of Quantitative PCR to calculate IC50 value.

in vitro = format: cell-based; details: human; Hep G 2.2.15 cells, MTT, day 3 post-dosing
Procedure: Hep G 2.2.15 cells were inoculated in a 96-well plate (with cell number being 5.5×10^4) to continually cultivate for 3 days, new culture solutions containing different concentrations of drugs were added, and 3 wells were provided in parallel; at day 3 post-dosing, MTT was added until 7.5 mg/ml, and continued to cultivate for 2 hours, the supernate was discarded, isopropanol containing 10% […] was added, 120 μl/well, and 0.4 μl/well was further added.

[1] = tested on: liver damage in mice caused by CCl4; format: in vivo, Kunmin mice; details: serum, CCl4 model, 0.2 mmol oral twice, 24 hours after second administration
Procedure: Kunmin mice (20 g) were grouped randomly (8/group). 0.2 mmol of a compound to be tested was orally administered; after 1 hour post-dosing, a 0.1% peanut oil solution of CCl4 was subcutaneously injected (10 mL/kg), to prepare a liver damage model; the normal saline was injected as a normal control group. After modeling for 12 hours, 0.2 mmol of the compound to be tested was orally administrated again. After 24 hours from the second administration, blood samples were collected to take serum specimen so as to determine ALT, AST.

[2] = tested on: liver damage in mice caused by D-aminogalactose; format: in vivo, Kunmin mice; details: serum, D-aminogalactose 750 mg/kg model, 0.2 mmol oral twice, 24 hours after second administration
Procedure: Kunmin mice (20 g) were grouped randomly (8/group). 0.2 mmol of a compound to be tested was orally administered; after 2 hours post-dosing, D-aminogalactose was intraperitoneally injected at a dose of 750 mg/kg to prepare a liver damage model, and the normal saline was subcutaneously injected as a normal control group. After modeling for 12 hours, 0.2 mmol of the compound to be tested was orally administrated again. After 24 hours from the second administration, blood samples were collected to take serum specimen so as to determine ALT, AST.

[3] = read-out: Inhibition ratio (%) Day 14 of dosing
[4] = read-out: Inhibition ratio (%) day 7 after drug withdrawal
[5] = Hepatitis B virus, HepG2.2.15, 240 h, Hep G 2.2.15 cells, HBV DNA in supernate at day 10 post-dosing, read-out: IC50
[6] = Hepatitis B virus, HepG2.2.15, 240 h
[7] = serum DHBV DNA, read-out: Inhibition ratio (%) Day 14 of dosing
[8] = serum DHBV DNA, read-out: Inhibition ratio (%) day 7 after drug withdrawal

Row | Structure (SMILES) | ALT [1] [U/L] | AST [1] [U/L] | ALT [2] [U/L] | AST [2] [U/L] | CC50 at 3 days (in vitro) [µM] | IC50 (HBV; [6]) [µM] | further results
1 | Nc1nc2c(ncn2COCCO)c(=O)[nH]1 [Acyclovir, acyclovir, reference compound] | – | – | – | – | – | – | inhibition in vivo at 20 mg/kg (DHBV; [3]): 12.5%; inhibition in vivo at 20 mg/kg (DHBV; [4]): 2.64%; IC50 (HBV; [5]): 25.6 µM
2 | COC(=O)C(C)NP(=O)(OCC1OC(n2ccc(N)nc2=O)CS1)Oc1ccccc1 (stereo not shown) [Cf1109, reference compound] | 2048 | 3351 | 191 | 140 | – | – | CC50 (in vitro): 82 µM; inhibition in vivo at 20 mg/kg (DHBV; serum DHBV DNA, 20 mg/kg intragastric once a day for 14 days, read-out: Inhibition ratio (%) Day 14 of dosing): 68.8%; inhibition in vivo at 20 mg/kg (DHBV; serum DHBV DNA, 20 mg/kg intragastric once a day for 14 days, read-out: Inhibition ratio (%) day 7 after drug withdrawal): 5.38%; IC50 (HBV; [5]): 0.13 µM
3 | Nc1ncnc2c1ncn2CCOCP(=O)(Oc1cccc2c1OCO2)Oc1cccc2c1OCO2 [Compound I1, 9-[[[bis-((benzo[1,3]dioxolan-4-yl)-oxyl)-phosphonyl]-methoxyl]-ethyl]-adenine] | 328 | 433 | 679 | 796 | > 200 | 8.05 | –
4 | Nc1ncnc2c1ncn2CCOCP(=O)(Oc1ccc2c(c1)OCO2)Oc1ccc2c(c1)OCO2 [Compound I2, 9-[[[bis-((benzo[1,3]dioxolan-5-yl)-oxyl)-phosphonyl]-methoxyl]-ethyl]-adenine] | 435 | 764 | 514 | 560 | > 200 | 0.47 | –
5 | Nc1ncnc2c1ncn2CCOCP(=O)(Oc1cccc2c1OCCO2)Oc1cccc2c1OCCO2 [Compound I3, 9-[[[bis-((benzo[1,4]dioxan-5-yl)-oxyl)-phosphonyl]-methoxyl]-ethyl]-adenine] | – | – | – | – | > 200 | 6.07 | –
6 | Nc1ncnc2c1ncn2CCOCP(=O)(Oc1ccc2c(c1)OCCO2)Oc1ccc2c(c1)OCCO2 [Compound I4, 9-[[[bis-((benzo[1,4]dioxan-6-yl)-oxyl)-phosphonyl]-methoxyl]-ethyl]-adenine] | – | – | – | – | > 200 | 3.19 | –
7 | C[C@H](Cn1cnc2c(N)ncnc21)OCP(=O)(Oc1ccc2c(c1)OCO2)Oc1ccc2c(c1)OCO2 [Compound I6, 9-[(R)-2-[[bis-((benzo[1,3]dioxolan-5-yl)-oxyl)-phosphonyl]-methoxyl]-propyl]-adenine] | – | – | – | – | > 200 | 0.41 | –
8 | Nc1nc2c(ncn2COCCOP(=O)(Oc2cccc3c2OCO3)Oc2cccc3c2OCO3)c(=O)[nH]1 [Compound I11, 9-[[[bis-((benzo[1,3]dioxolan-4-yl)-oxyl)-phosphoryloxyl]-ethoxyl]-methyl]-guanine] | – | – | – | – | > 200 | 1.66 | –
9 | Nc1nc2c(ncn2COCCOP(=O)(Oc2ccc3c(c2)OCO3)Oc2ccc3c(c2)OCO3)c(=O)[nH]1 [Compound I12, 9-[[[bis-((benzo[1,3]dioxolan-5-yl)-oxyl)-phosphoryloxyl]-ethoxyl]-methyl]-guanine] | – | – | – | – | > 200 | 0.24 | –
10 | COc1nc(N)nc2c1ncn2COCCOP(=O)(Oc1ccc2c(c1)OCO2)Oc1ccc2c(c1)OCO2 [Compound I13, 2-amino-6-methoxyl-9-[[[bis-((benzo[1,3]dioxolan-5-yl)-oxyl)-phosphoryloxyl]-ethoxyl]-methyl]-purine] | – | – | – | – | > 200 | 0.29 | –
11 | Nc1ccn(C2CSC(COP(=O)(Oc3ccc4c(c3)OCO4)Oc3ccc4c(c3)OCO4)O2)c(=O)n1 (stereo not shown) [Compound I14, 5′-bis-[((benzo[1,3]dioxolan-5-yl)-oxyl)-phosphoryl]-2′,3′-dideoxy-3′-thia-cytidine] | – | – | – | – | > 200 | 5.28 | –
12 | C=C1[C@H](COP(=O)(Oc2ccc3c(c2)OCO3)Oc2ccc3c(c2)OCO3)[C@@H](O)C[C@@H]1n1cnc2c(=O)[nH]c(N)nc21 [Compound I15, 9-[(1S,3R,4S)-4-hydroxyl-3-(bis-(((benzo[1,3]dioxolan-5-yl)-oxyl)-phosphoryl)-oxymethyl)-2-methylenecyclopentyl]-guanine] | – | – | – | – | > 200 | 0.12 | –
13 | COC(=O)[C@@H](C)NP(=O)(CO[C@H](C)Cn1cnc2c(N)ncnc21)Oc1ccc2c(c1)OCO2 (stereo partly shown) [Compound I19] | – | – | – | – | 146 | 0.008 | –
14 | CC(C)OC(=O)[C@H](NP(=O)(CO[C@H](C)Cn1cnc2c(N)ncnc21)Oc1ccc2c(c1)OCO2)C(C)C (stereo partly shown) [Compound I22] | – | – | – | – | > 200 | 0.17 | –
15 | CC(C)OC(=O)[C@@H](C)NP(=O)(CO[C@H](C)Cn1cnc2c(N)ncnc21)Oc1cccc2c1OCO2 (stereo partly shown) [Compound I24] | – | – | – | – | > 200 | 4.6 | –
16 | COc1ccc(Sc2nc(N)nc3c2ncn3CCOCP(=O)(N[C@H](C)C(=O)OC(C)C)Oc2ccc3c(c2)OCO3)cc1 (stereo partly shown) [Compound I26, 2-amino-6-(4-methoxylphenyl)thio-9-[[[(((benzo[1,3]dioxolan-5-yl)-oxyl)-1-isopropyloxylcarbonylethylamino)-phosphonyl]-methoxyl]-ethyl]-purine] | 521 | 363 | 212 | 586 | > 200 | 0.039 | inhibition in vivo at 25 mg/kg (DHBV; [3]): 93.5%; inhibition in vivo at 25 mg/kg (DHBV; [4]): 11.5%
17 | COc1nc(N)nc2c1ncn2COCCOP(=O)(N[C@H](C)C(=O)OC(C)C)Oc1ccc2c(c1)OCO2 (stereo partly shown) [Compound I29] | 307 | 561 | 301 | 510 | – | – | CC50 (in vitro): > 200 µM; inhibition in vivo at 10 mg/kg (DHBV; [7]): 90.8%; inhibition in vivo at 10 mg/kg (DHBV; [8]): 17.1%; IC50 (HBV; [5]): 0.14 µM
18 | C=C1[C@H](CO[P@](=O)(N[C@@H](C)C(=O)OC(C)C)Oc2ccc3c(c2)OCO3)[C@@H](O)C[C@@H]1n1cnc2c(=O)[nH]c(N)nc21 [Compound I38-a] | 410 | 289 | 177 | 275 | – | – | CC50 (in vitro): 139 µM; inhibition in vivo at 0.5 mg/kg (DHBV; [7]): 76.2%; inhibition in vivo at 0.5 mg/kg (DHBV; [8]): 31.4%; IC50 (HBV; [5]): 0.001 µM
19 | C=C1[C@H](CO[P@@](=O)(N[C@@H](C)C(=O)OC(C)C)Oc2ccc3c(c2)OCO3)[C@@H](O)C[C@@H]1n1cnc2c(=O)[nH]c(N)nc21 [Compound I38-b] | 162 | 387 | 217 | 493 | – | – | CC50 (in vitro): > 200 µM; inhibition in vivo at 0.5 mg/kg (DHBV; [7]): 96.4%; inhibition in vivo at 0.5 mg/kg (DHBV; [8]): 63.4%; IC50 (HBV; [5]): 0.09 µM
20 | Nc1ccn([C@@H]2CS[C@H](CO)O2)c(=O)n1 [Lamivudine, lamivudine, reference compound] | – | – | – | – | – | – | inhibition in vivo at 20 mg/kg (DHBV; [3]): 76.1%; inhibition in vivo at 20 mg/kg (DHBV; [4]): 2.35%; IC50 (HBV; [5]): 0.075 µM
21 | Nc1ncnc2c1ncn2CCOCP(=O)(Oc1ccccc1)Oc1ccccc1 [i-1, 9-[[bis-(phenoxyl)-phosphonyl-methoxyl]-ethyl]-adenine, reference compound] | 2930 | 2943 | 1227 | 1456 | – | – | IC50 (HBV; Hep G 2.2.15 cells, HBV DNA in supernate at day 10 post-dosing, read-out: IC50): 11.3 µM
22 | Nc1ncnc2c1ncn2CCOCP(=O)(Oc1cccc2ccccc12)Oc1cccc2ccccc12 [i-2, 9-[[bis-(naphthoxy)-phosphonyl-methoxyl]-ethyl]-adenine, reference compound] | 3482 | 3660 | 1374 | 1812 | 152 | 1.92 | –

Source: patent US20160115186A1, “PHOSPHORIC ACID/PHOSPHONIC ACID DERIVATIVES AND MEDICINAL USES THEREOF” (priority 2013, published 2016)
